# Results: ChEMBL document CHEMBL1201862, “PubChem BioAssay data set” (2004)
# Where “and” joins values, the source holds several entries; their conditions need not be identical. Identical values can stand only once.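 Each compound was tested at five concentrations against cells in 96-well plates for 48 hours. Here, GI50 denotes the concentration required for 50% inhibition of growth.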 Calls of active or inactive are those of the source. Rule as the data show it: active = GI50 up to about 1.1 µM and inactive = higher.
# Experiments:
# Assay in all cases: NCI-60 cell line screen, 48 h
# 786-0 = system: 786-0
# A498 = system: A498
# A549 = system: A549
# ACHN = system: ACHN
# BT-549 = system: BT-549
# CAKI-1 = system: CAKI-1
# CCRF-CEM = system: CCRF-CEM
# COLO 205 = system: COLO 205
# DU-145 = system: DU-145
# EKVX = system: EKVX
# HCC 2998 = system: HCC 2998
# HCT-116 = system: HCT-116
# HCT-15 = system: HCT-15
# HOP-62 = system: HOP-62
# HOP-92 = system: HOP-92
# HT-29 = system: HT-29
# Hs-578T = system: Hs-578T
# IGROV-1 = system: IGROV-1
# K562 = system: K562
# KM12 = system: KM12
# LOX IMVI = system: LOX IMVI
# M14 = system: M14
# MCF7 = system: MCF7
# MDA-MB-231 = system: MDA-MB-231
# MDA-MB-435 = system: MDA-MB-435
# Malme-3M = system: Malme-3M
# NCI-H226 = system: NCI-H226
# NCI-H23 = system: NCI-H23
# NCI-H460 = system: NCI-H460
# NCI-H522 = system: NCI-H522
# NCI/ADR-RES = system: NCI/ADR-RES
# OVCAR-3 = system: OVCAR-3
# OVCAR-4 = system: OVCAR-4
# OVCAR-5 = system: OVCAR-5
# OVCAR-8 = system: OVCAR-8
# PC-3 = system: PC-3
# RPMI-8226 = system: RPMI-8226
# RXF 393 = system: RXF 393
# SF-268 = system: SF-268
# SF-295 = system: SF-295
# SF-539 = system: SF-539
# SK-MEL-28 = system: SK-MEL-28
# SK-MEL-2 = system: SK-MEL-2
# SK-MEL-5 = system: SK-MEL-5
# SK-OV-3 = system: SK-OV-3
# SN12C = system: SN12C
# SNB-19 = system: SNB-19
# SNB-75 = system: SNB-75
# SR = system: SR
# SW-620 = system: SW-620
# T47D = system: T47D
# TK-10 = system: TK-10
# U-251 = system: U-251
# UACC-257 = system: UACC-257
# UACC-62 = system: UACC-62
# UO-31 = system: UO-31
# HL-60 = system: HL-60
# MDA-N = system: MDA-N
smiles,measurement,setting,value
COc1cc2nc(Cl)nc(NS(=O)(=O)c3cc4ccccc4s3)c2cc1OC,GI50,786-0,35.4 µM (inactive)
same,GI50,A498,16.4 µM (inactive)
same,GI50,A549,32 µM (inactive)
same,GI50,ACHN,30.8 µM (inactive)
same,GI50,BT-549,22.9 µM (inactive)
same,GI50,CAKI-1,33.3 µM (inactive)
same,GI50,CCRF-CEM,12.1 µM (inactive)
same,GI50,COLO 205,38.1 µM (inactive)
same,GI50,DU-145,21.3 µM (inactive)
same,GI50,EKVX,25 µM (inactive)
same,GI50,HCC 2998,19 µM (inactive)
same,GI50,HCT-116,30.2 µM (inactive)
same,GI50,HCT-15,36.3 µM
same,GI50,HOP-62,31.5 µM (inactive)
same,GI50,HOP-92,18 µM (inactive)
same,GI50,HT-29,27.5 µM (inactive)
same,GI50,Hs-578T,40.6 µM (inactive)
same,GI50,IGROV-1,27 µM (inactive)
same,GI50,K562,18.2 µM (inactive)
same,GI50,KM12,23.3 µM (inactive)
same,GI50,LOX IMVI,23.3 µM (inactive)
same,GI50,M14,26.2 µM (inactive)
same,GI50,MCF7,31.6 µM (inactive)
same,GI50,MDA-MB-231,24.9 µM (inactive)
same,GI50,MDA-MB-435,22.4 µM (inactive)
same,GI50,Malme-3M,32 µM (inactive)
same,GI50,NCI-H226,36.8 µM (inactive)
same,GI50,NCI-H23,25.7 µM (inactive)
same,GI50,NCI-H460,32.5 µM (inactive)
same,GI50,NCI-H522,31.3 µM (inactive)
same,GI50,NCI/ADR-RES,39.8 µM (inactive)
same,GI50,OVCAR-3,19 µM (inactive)
same,GI50,OVCAR-4,27.4 µM (inactive)
same,GI50,OVCAR-5,19.6 µM (inactive)
same,GI50,OVCAR-8,33 µM (inactive)
same,GI50,PC-3,26.1 µM (inactive)
same,GI50,RPMI-8226,18.4 µM (inactive)
same,GI50,RXF 393,16.6 µM (inactive)
same,GI50,SF-268,35.3 µM (inactive)
same,GI50,SF-295,33.8 µM (inactive)
same,GI50,SF-539,37.2 µM (inactive)
same,GI50,SK-MEL-28,33.5 nM (active)
same,GI50,SK-MEL-2,24.5 µM (inactive)
same,GI50,SK-MEL-5,19.1 µM (inactive)
same,GI50,SK-OV-3,28.1 µM (inactive)
same,GI50,SN12C,29.6 µM (inactive)
same,GI50,SNB-19,21 µM (inactive)
same,GI50,SNB-75,23.1 µM (inactive)
same,GI50,SR,23.4 µM (inactive)
same,GI50,SW-620,17.1 µM (inactive)
same,GI50,T47D,19.7 µM (inactive)
same,GI50,TK-10,28.3 µM (inactive)
same,GI50,U-251,27.3 µM (inactive)
same,GI50,UACC-257,32.4 µM (inactive)
same,GI50,UACC-62,16.9 µM (inactive)
same,GI50,UO-31,16.4 µM (inactive)
CN1C=c2c3c(ccc2=C2C=CC4C=C5OCOC5=CC4=C21)OCO3 (stereo not given),GI50,786-0,1.66 µM (inactive) and 1.31 µM (inactive)
same,GI50,BT-549,2.15 µM (inactive) and 1.58 µM (inactive)
same,GI50,COLO 205,1.89 µM (inactive) and 1.4 µM (inactive)
same,GI50,HCT-116,1.66 µM (inactive) and 1.02 µM (active)
same,GI50,HCT-15,1.41 µM and 1.7 µM
same,GI50,HL-60,285 nM (active) and 170 nM (active)
same,GI50,HOP-62,2.28 µM (inactive) and 1.55 µM (inactive)
same,GI50,HT-29,2.07 µM (inactive) and 1.62 µM (inactive)
same,GI50,Hs-578T,1.9 µM (inactive) and 2.65 µM (inactive)
same,GI50,IGROV-1,1.99 µM (inactive) and 1.65 µM (inactive)
same,GI50,LOX IMVI,1.8 µM (inactive) and 1.6 µM (inactive)
same,GI50,M14,1.21 µM (inactive) and 1.73 µM (inactive)
same,GI50,MDA-MB-231,2 µM (inactive) and 1.22 µM (inactive)
same,GI50,MDA-MB-435,1.06 µM (active) and 1.85 µM (inactive)
same,GI50,MDA-N,1.85 µM (inactive) and 1.35 µM (inactive)
same,GI50,Malme-3M,2.44 µM (inactive) and 1.6 µM (inactive)
same,GI50,NCI-H23,1.53 µM (inactive) and 2.98 µM (inactive)
same,GI50,NCI-H522,1.5 µM (inactive) and 1.45 µM (inactive)
same,GI50,OVCAR-3,871 nM (active) and 1.58 µM (inactive)
same,GI50,OVCAR-4,1.85 µM (inactive) and 3.11 µM (inactive)
same,GI50,PC-3,2.96 µM (inactive) and 1.52 µM (inactive)
same,GI50,RXF 393,1.98 µM (inactive) and 1.04 µM (active)
same,GI50,SF-268,2.42 µM (inactive) and 1.61 µM (inactive)
same,GI50,SF-539,2.28 µM (inactive) and 1.71 µM (inactive)
same,GI50,SK-MEL-28,1.59 µM (inactive) and 2.89 µM (inactive)
same,GI50,SK-MEL-2,2.69 µM (inactive) and 1.95 µM (inactive)
same,GI50,SK-MEL-5,2.44 µM (inactive) and 1.6 µM (inactive)
same,GI50,SN12C,1.92 µM (inactive) and 1.56 µM (inactive)
same,GI50,SNB-75,1.87 µM (inactive) and 3.72 µM (inactive)
same,GI50,SW-620,1.05 µM (active) and 1.58 µM (inactive)
same,GI50,T47D,1.75 µM (inactive) and 2.28 µM (inactive)
same,GI50,U-251,1.57 µM (inactive) and 2.34 µM (inactive)
same,GI50,UACC-257,3.15 µM (inactive) and 1.76 µM (inactive)
same,GI50,UO-31,2.1 µM (inactive) and 1.47 µM (inactive)
